For one test, the target named is Mu-type opioid receptor (Homo sapiens, UniProt P35372). Description: Selectivity interaction (Panel of kinases, GPCRs, ion channels and transporters (enzymatic assay)) EUB0000266bCl OPRM1.
For the next test, the target named is D(2) dopamine receptor (Homo sapiens, UniProt P14416). Description: Selectivity interaction (Panel of kinases, GPCRs, ion channels and transporters (enzymatic assay)) EUB0000266bCl DRD2.
The target in a further test is SRSF protein kinase 1 (Homo sapiens, UniProt Q96SB4). Description: Selectivity interaction (Upstate Kinase Profiler service (Millipore)) EUB0000056c SRPK1. As to conditions: at 1 µM.
Test [1] has as its target Receptor tyrosine-protein kinase erbB-2 (Homo sapiens, UniProt P04626). Nature of the test: Selectivity interaction (ProQinase) EUB0000171b ERBB2.
Test [2] concerns the target Tyrosine-protein kinase HCK (Homo sapiens) (UniProt P08631). As to conditions: at 10 µM.
Test [3] concerns the target Ephrin type-A receptor 7 (Homo sapiens) (UniProt Q15375). Nature of the test: Selectivity interaction (Kinase panel (DSF assay)) EUB0001558a EPHA7. A general note: Differential scanning fluorimetry follows unfolding on heating by fluorescence.
Test [4] has as its target Phosphorylase b kinase gamma catalytic chain, skeletal muscle/heart isoform (Homo sapiens) (UniProt Q16816). As to conditions: at 10 µM.
Test [5] concerns the target T1, Dual specificity mitogen-activated protein kinase kinase 3 (Homo sapiens) (UniProt P46734).
T1 sequence (whole entry): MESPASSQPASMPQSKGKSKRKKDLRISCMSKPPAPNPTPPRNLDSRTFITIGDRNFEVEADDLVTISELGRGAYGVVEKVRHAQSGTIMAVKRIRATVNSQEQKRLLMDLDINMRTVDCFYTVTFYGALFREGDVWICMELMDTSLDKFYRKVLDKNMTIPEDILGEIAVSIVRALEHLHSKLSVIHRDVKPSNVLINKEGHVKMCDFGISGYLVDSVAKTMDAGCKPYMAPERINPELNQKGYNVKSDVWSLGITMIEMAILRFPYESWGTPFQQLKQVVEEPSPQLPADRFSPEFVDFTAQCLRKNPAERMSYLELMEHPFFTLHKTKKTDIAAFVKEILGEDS
To be noted: at 10 µM.

Test [6] deals with Mitotic checkpoint serine/threonine-protein kinase BUB1 (Homo sapiens, UniProt O43683). Nature of the test: Selectivity interaction (KinomeScan (DiscoverX)) EUB0001079a BUB1. As to conditions: at 1 µM.
Test [7] addresses T2, Serine/threonine-protein kinase RIO1 (Homo sapiens) (UniProt Q9BRS2).
T2 sequence (whole entry): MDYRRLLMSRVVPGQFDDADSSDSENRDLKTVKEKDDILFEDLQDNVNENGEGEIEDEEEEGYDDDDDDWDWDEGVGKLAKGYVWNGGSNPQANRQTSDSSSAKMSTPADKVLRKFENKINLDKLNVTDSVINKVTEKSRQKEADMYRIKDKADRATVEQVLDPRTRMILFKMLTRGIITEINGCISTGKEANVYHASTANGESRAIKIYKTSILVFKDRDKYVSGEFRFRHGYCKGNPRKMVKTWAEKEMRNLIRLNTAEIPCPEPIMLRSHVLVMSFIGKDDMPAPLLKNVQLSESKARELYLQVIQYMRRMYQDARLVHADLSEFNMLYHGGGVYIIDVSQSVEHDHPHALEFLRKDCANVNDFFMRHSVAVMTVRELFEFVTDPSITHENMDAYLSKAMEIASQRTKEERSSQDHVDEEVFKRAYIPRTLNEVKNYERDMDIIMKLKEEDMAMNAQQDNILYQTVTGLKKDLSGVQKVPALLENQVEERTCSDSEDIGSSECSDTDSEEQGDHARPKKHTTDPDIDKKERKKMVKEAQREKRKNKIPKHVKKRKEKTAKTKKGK
Description: Selectivity interaction (KinomeScan (DiscoverX)) EUB0000092b RIOK1. As to conditions: at 10 µM.

The target in test [8] is Casein kinase I isoform epsilon (Homo sapiens, UniProt P49674). Description: Selectivity interaction (KinomeScan (DiscoverX)) EUB0001049a CSNK1E. As to conditions: at 1 µM.
In test [9] the target is Interferon-induced, double-stranded RNA-activated protein kinase (Homo sapiens) (UniProt P19525). Nature of the test: Selectivity interaction (KinomeScan (DiscoverX)) EUB0000045b EIF2AK2.
The target of test [10] is Serine/threonine-protein kinase 26 (Homo sapiens, UniProt Q9P289). Nature of the test: Selectivity interaction (Kinase panel (Z-LYTE Assay)) EUB0001632a STK26. As to conditions: at 10 µM.
Test [11] has as its target 5'-AMP-activated protein kinase catalytic subunit alpha-2 (Homo sapiens) (UniProt P54646). Nature of the test: Selectivity interaction (ActivX KiNativ screen (kinase selectivity in THP-1 cell lysates)) EUB0000639a PRKAA2. The class given is subcellular. To be noted: lysate, at 0.01 µM.
Test [12] has as its target Phosphatidylinositol 4,5-bisphosphate 3-kinase catalytic subunit alpha isoform (Homo sapiens) (UniProt P42336). As to conditions: at 10 µM.
In another test the target is Adenosine receptor A1 (Homo sapiens, UniProt P30542). Description: Selectivity interaction (Adenosine 1 receptor binding assay, human recombinant) EUB0000877a ADORA1.
Test [13] has as its system Epidermal growth factor receptor (Homo sapiens), P00533 [UNDEFINED MUTATION]. Description: Selectivity interaction (KinomeScan (DiscoverX)) EUB0001619a EGFR. As to conditions: at 1 µM.
Test [14] concerns the target T3, Mitogen-activated protein kinase 12 (Homo sapiens) (UniProt P53778).
T3 sequence (whole entry): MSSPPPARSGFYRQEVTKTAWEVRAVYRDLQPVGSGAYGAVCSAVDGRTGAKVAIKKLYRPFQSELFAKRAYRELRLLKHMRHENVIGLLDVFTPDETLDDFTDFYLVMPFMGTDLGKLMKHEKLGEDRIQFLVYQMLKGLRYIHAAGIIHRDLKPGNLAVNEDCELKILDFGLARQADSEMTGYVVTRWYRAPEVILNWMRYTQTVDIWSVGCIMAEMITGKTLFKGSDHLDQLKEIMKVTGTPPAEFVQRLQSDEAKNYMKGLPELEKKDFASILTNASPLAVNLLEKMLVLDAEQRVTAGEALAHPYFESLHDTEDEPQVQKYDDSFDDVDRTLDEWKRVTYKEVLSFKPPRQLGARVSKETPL
Description: Selectivity interaction (KinomeScan (DiscoverX)) EUB0001619a MAPK12. To be noted: at 1 µM.

Test [15] addresses Calcium/calmodulin-dependent protein kinase type 1 (Homo sapiens) (UniProt Q14012). Nature of the test: Selectivity interaction (ActivX KiNativ screen (ex vivo kinase selectivity in human PBMCs)) EUB0001619a CAMK1. The class given is cell-based. To be noted: PBMC, at 1 µM.

Broadly, the IC50 is the concentration needed to halve the response being measured.

Where only a bound is given, the exact number is not on record here.

Interferon-induced, double-stranded RNA-activated protein kinase (Homo sapiens), sequence (P19525 whole entry): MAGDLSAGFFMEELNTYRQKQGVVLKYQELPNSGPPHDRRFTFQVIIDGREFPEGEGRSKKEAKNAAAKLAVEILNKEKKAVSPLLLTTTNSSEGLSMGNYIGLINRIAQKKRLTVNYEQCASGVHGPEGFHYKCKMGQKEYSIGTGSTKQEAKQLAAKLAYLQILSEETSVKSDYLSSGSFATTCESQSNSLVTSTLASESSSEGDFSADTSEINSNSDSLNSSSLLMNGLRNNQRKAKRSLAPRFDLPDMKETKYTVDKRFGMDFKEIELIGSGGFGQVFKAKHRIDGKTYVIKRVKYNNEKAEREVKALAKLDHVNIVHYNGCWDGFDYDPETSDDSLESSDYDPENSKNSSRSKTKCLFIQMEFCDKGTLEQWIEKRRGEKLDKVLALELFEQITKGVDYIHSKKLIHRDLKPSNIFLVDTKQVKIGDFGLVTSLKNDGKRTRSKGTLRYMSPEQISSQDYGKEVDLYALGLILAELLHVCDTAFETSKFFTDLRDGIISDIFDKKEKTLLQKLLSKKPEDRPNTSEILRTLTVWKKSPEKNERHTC
Receptor tyrosine-protein kinase erbB-2, sequence (P04626 whole entry): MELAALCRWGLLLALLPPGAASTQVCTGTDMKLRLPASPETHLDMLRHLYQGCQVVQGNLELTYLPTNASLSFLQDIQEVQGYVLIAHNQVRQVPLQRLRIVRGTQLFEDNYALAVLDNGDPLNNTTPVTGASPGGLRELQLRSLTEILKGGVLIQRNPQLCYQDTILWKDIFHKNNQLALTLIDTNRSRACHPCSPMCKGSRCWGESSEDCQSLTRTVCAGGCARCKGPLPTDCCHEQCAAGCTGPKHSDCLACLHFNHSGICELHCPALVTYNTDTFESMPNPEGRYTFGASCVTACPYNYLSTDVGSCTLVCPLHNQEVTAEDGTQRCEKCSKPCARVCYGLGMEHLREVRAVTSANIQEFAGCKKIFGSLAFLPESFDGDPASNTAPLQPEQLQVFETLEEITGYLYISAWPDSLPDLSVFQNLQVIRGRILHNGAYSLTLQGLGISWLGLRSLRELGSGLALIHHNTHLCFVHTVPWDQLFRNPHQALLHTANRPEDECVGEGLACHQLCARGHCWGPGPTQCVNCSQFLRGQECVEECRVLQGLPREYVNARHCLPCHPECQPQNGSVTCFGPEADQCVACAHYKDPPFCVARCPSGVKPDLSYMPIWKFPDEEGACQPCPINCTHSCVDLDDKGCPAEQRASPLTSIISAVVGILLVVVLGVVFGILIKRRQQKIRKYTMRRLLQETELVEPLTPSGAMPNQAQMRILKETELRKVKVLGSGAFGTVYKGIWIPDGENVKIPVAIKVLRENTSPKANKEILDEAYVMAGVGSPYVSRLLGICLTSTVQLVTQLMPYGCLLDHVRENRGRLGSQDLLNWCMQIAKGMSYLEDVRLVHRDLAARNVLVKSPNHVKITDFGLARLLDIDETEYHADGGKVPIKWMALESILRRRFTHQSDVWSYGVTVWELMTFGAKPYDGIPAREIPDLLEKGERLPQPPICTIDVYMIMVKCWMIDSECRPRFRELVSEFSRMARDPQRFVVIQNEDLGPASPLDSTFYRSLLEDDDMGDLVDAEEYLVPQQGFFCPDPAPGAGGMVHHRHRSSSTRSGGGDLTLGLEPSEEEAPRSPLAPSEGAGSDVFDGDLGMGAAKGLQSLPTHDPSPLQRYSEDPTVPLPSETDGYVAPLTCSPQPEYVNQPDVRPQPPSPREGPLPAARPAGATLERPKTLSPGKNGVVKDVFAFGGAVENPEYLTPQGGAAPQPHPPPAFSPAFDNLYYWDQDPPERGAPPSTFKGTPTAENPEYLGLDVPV
Calcium/calmodulin-dependent protein kinase type 1 (Homo sapiens), sequence (Q14012 whole entry, looked up): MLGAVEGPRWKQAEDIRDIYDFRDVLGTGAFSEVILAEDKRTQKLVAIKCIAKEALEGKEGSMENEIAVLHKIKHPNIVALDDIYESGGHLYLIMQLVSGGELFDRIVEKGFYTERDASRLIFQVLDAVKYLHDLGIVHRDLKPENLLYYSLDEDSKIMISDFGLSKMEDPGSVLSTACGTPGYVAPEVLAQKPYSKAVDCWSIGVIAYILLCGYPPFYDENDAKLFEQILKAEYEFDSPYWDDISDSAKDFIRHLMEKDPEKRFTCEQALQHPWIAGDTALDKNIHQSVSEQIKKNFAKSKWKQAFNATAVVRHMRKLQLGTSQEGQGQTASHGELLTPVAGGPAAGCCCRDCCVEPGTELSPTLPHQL
D(2) dopamine receptor, sequence (P14416 whole entry): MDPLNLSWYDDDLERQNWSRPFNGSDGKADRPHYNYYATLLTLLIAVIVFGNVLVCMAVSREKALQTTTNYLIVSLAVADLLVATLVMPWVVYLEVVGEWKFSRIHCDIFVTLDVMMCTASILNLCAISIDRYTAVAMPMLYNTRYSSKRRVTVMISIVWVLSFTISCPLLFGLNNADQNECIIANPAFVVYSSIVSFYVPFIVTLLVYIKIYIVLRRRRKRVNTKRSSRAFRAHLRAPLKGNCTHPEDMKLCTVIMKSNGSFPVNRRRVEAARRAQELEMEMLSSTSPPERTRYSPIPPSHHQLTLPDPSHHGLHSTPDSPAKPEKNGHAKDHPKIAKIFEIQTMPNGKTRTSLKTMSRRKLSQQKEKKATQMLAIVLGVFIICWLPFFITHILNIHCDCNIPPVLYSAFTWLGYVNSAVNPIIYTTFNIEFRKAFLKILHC
SRSF protein kinase 1, sequence (Q96SB4 whole entry): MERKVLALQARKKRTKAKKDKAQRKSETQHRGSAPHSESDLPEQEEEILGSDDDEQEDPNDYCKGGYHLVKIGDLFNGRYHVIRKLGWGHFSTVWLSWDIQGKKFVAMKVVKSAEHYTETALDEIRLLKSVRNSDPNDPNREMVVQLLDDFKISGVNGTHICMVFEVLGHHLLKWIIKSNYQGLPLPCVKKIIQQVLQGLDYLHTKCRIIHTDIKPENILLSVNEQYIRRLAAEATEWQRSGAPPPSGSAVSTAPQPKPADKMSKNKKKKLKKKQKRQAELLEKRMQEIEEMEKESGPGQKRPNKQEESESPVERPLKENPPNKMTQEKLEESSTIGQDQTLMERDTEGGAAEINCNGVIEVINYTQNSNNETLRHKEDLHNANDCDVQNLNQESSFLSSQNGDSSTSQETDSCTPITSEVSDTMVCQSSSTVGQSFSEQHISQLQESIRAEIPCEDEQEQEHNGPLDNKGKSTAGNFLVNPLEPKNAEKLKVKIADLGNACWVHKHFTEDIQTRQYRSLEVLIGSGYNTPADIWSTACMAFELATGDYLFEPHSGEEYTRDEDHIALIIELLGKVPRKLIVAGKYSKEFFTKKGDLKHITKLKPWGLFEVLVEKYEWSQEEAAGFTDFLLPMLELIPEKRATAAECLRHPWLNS
Epidermal growth factor receptor (Homo sapiens), P00533 [UNDEFINED MUTATION], sequence (P00533 whole entry, looked up, change not shown): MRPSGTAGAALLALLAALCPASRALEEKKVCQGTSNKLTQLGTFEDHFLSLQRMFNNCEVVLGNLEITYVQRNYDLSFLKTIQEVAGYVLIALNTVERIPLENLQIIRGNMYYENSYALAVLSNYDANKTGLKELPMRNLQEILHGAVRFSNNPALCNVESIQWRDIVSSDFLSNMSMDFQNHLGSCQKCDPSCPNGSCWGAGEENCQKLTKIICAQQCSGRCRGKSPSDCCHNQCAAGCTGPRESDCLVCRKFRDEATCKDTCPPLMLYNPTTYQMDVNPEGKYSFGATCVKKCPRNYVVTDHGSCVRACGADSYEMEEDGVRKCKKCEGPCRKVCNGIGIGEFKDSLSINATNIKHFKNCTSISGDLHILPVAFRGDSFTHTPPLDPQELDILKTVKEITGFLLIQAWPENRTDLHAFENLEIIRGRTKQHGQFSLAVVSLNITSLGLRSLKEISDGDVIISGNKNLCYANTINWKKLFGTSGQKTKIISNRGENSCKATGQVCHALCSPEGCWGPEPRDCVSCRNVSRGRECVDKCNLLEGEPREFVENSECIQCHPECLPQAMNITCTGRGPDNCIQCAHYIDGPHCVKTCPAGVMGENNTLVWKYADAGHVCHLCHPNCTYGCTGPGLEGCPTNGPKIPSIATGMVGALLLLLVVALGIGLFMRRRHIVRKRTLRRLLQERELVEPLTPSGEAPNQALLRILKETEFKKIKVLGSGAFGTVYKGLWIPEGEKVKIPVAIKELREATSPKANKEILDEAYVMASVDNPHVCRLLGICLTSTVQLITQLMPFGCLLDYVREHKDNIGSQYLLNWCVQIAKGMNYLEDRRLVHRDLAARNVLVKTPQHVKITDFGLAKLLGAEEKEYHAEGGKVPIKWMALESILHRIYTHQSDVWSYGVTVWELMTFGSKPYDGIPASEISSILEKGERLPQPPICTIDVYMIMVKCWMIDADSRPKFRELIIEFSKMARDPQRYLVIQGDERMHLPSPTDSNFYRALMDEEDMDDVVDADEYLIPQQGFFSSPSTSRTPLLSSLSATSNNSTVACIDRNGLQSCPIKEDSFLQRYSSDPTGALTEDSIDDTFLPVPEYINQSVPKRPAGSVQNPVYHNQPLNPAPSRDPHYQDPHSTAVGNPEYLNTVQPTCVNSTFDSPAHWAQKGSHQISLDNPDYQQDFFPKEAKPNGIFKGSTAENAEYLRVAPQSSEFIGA
Serine/threonine-protein kinase 26, sequence (Q9P289 2-416 limits assumed): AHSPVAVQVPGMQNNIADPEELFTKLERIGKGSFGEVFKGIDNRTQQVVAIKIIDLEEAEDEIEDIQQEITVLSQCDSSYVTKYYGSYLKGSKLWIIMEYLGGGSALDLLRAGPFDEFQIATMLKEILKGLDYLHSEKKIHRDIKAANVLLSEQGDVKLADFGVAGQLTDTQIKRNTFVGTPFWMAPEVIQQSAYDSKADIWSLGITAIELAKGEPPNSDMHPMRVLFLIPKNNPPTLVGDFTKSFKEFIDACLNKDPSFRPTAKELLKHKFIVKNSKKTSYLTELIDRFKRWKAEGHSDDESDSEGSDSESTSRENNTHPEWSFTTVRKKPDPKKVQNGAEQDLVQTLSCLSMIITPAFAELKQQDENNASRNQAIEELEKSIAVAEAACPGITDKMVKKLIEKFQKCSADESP

With `CCn1c(-c2nc3cc(C(=O)N4CCCC(N)C4)ccc3n2C)cc2ccccc21` (stereo unspecified), the figures for the pXC50 on Mu-type opioid receptor and at D(2) dopamine receptor were below 4 M and 4.5 M, respectively. As for `Cc1ccc(-c2ccc3c(ccc4sc5c(c43)NC[C@@H](C)NC5=O)n2)cn1`, the % of inhibition at SRSF protein kinase 1 amounted to 34%. With `C=CC(=O)Nc1cccc(C(=O)Nc2ccc(Nc3cc(-c4[nH]c(SC)nc4C)ccn3)cc2)c1`, the results for the % of control in test [1] (at 1 µM) and in [1] (at 5 µM) were 92% and 94%, respectively.

For the compound `Cc1cc([C@@H](C)Nc2ccccc2C(=O)O)c2nc(N3CCOCC3)cc(=O)n2c1` [AZD-6482], the % of control in [2] was 100%. In test [3], `CC(C)(O)[C@H](F)CN1Cc2cc(NC(=O)c3cnn4cccnc34)c(N3CCOCC3)cc2C1=O` displayed a dTM of -0.2 K. As to `CCN(CC)CCCCNc1ncc2cc(-c3cc(OC)cc(OC)c3)c(NC(=O)NC(C)(C)C)nc2n1`, the % of control in [4] and in test [5] was 100% in each case.

On to `Nc1cnc(N2CCc3cc(S(=O)(=O)Nc4c(F)cc(Cl)cc4F)cc(N4CCCC4=O)c32)nc1` [TP-020n], for which the % of control in [6] came out at 100%. In [7], `CCC(=O)N1CCN(c2ccc(-n3c(=O)ccc4cnc5ccc(-c6cnc7ccccc7c6)cc5c43)cc2C(F)(F)F)CC1` gave a % of control of 81%. In test [8], `COc1cc(Nc2nc(C)cc(-c3cnn4nc(OC)ccc34)n2)cc(C(F)(F)F)c1` gave a % of control of 80%.

As to `C=CC(=O)Nc1cc(-n2c(=O)ccc3cnc4ccc(-c5ccc(NS(C)(=O)=O)cc5)cc4c32)ccc1C`, the results for the % of control in test [9] (at 1 µM) and in test [9] (at 10 µM) were 100% and 71%, respectively. As for `Cn1cc(-n2cnc3c(NCc4nc5cc(Cl)c(Cl)cc5[nH]4)nc(N4CCOCC4)nc32)cn1`, the % of control in test [10] came out at 2.09%. Turning to `CC[C@@H]1[C@H](F)C(=O)N[C@@H]1COc1nccc2cc(C(N)=O)c(OC)cc12` [ZIMLOVISERTIB], the % of inhibition in test [11] was 14.5%. For `CCC(=O)N1CC[C@H](Nc2ncnc3c2CN(c2cnc(OC)c(C(F)(F)F)c2)CC3)C1` [LENIOLISIB], the % of inhibition in test [12] is 96%. For the same compound, on Adenosine receptor A1, the IC50 is above 30 µM. On to `N#Cc1cccc(-c2c[nH]c3ncnc(N4CCOCC4)c23)c1`, for which the % of control was found to be 83% in [13] and 100% in test [14]. The % of inhibition in test [15] came out at 2%.

For the origin of these results see ChEMBL document CHEMBL5465560, “Selectivity Literature for EUbOPEN Chemogenomic Library” (2024).
